The subject of data set [1] is oedema induced by carragenine in SJ rats. The data set is described as follows: Oedema induced by carragenine (anti-inflammatory effect). The class given is in vivo. The note with it: Rattus norvegicus, po, per os, AD40 = 40% active dose, read-out: Inflammation induced by carragenine AD40. The text has this:
The test of oedema induced by carragenine in SJ rats, in accordance with the technique of Winter and colleagues, (Proc. Soc. exp. Biol. Med., 1962, III, 544) was used. The effects of the compounds of the invention are markedly lower than that of the reference product.

Data set [2] relates to pain induced, in CDl mice, by the intraperitoneal injection of acetic acid. The data set is described as follows: Koster test: pain induced by intraperitoneal injection of acetic acid. In kind it is in vivo. The following applies: Mus musculus, po, per os, AD50 = 50% active dose. From the text: (§1) This effect was investigated in accordance with three conventional experimental procedures.
a. Effect against pain induced, in CDl mice, by the intraperitoneal injection of acetic acid, using the method described by Koster and colleagues (Fed. Proc., 1959, 18, 42) and modified by Peterfalvi, Branceni and colleagues, (Med. Pharmacol. exp., 1966, 15, 254).

The nature of data set [3]: Acute toxicity, 50% lethal dose in mice. The note with it: mouse, in vivo, po; mice (CD1 strain, both sexes), per os; 50% lethal dose calculated graphically. On the procedure:
The experiments were carried out on mice of the CDl strain, of both sexes, and the 50% lethal doses were calculated graphically.

The subject of another data set is CD1 mice, tail-pinching. Put plainly: Haffner tail-pinching test. The class given is in vivo. The following applies: Mus musculus, po, per os, AD50 = 50% active dose.
Text: as §1
c. Tail-pinching test on CD1 mice, using the method of Haffner (Deutsch. med. Wachr., 1959, 55, 731).

A short description of the next data set: Solubility in water. In kind it is physicochemical.

Where a name gives a salt, the structure may show the parent alone. Where only a bound is given, the exact number is not on record here.

What is called ED50 is the dose that gives a 50% effect, or the effect in half of the subjects. A higher ED50 goes with a need for a large dose. For orientation: LD50 means the dose expected to kill half of the subjects tested.

Consider `Cc1c(NC(=O)OCCN2CCN(c3cccc(Cl)c3)CC2)c(=O)n(-c2ccccc2)n1C` [SLB-207, 2-(4-m-Chlorophenyl-piperazino)-ethyl N-(2,3-dimethyl-5-oxo-1-phenyl-3Δ-pyrazolin-4-yl)-carbamate], for which the ED40 in data set [1] worked out at 100 mg/kg. Besides, the ED50 in data set [2] was 8 mg/kg; in the data set with CD1 mice, tail-pinching it was 10 mg/kg. Moreover, in data set [3], the LD50 is 990 mg/kg.

Turning to `Cc1c(NC(=O)OCCN2CCN(c3cccc(Cl)c3)CC2)c(=O)n(-c2ccccc2)n1C` [2-(4-m-chlorophenyl-piperazino)-ethyl N-(2,3-dimethyl-5-oxo-1-phenyl-3Δ-pyrazolin-4-yl)-carbamate tartrate], the solubility in water entry in the data set “Solubility in water” is recorded as “very soluble in water”.

For `Cc1c(NC(=O)OCCN2CCN(c3ccccc3)CC2)c(=O)n(-c2ccccc2)n1C` [SLB-197, 2-(4-Phenyl-piperazino)-ethyl N-(2,3-dimethyl-5-oxo-1-phenyl-3Δ-pyrazolin-4-yl)-carbamate], in data set [1], the ED40 was greater than 100 mg/kg. The compound further registered an ED50 in data set [2] of 30 mg/kg. In addition, in data set [3], the LD50 is 400 mg/kg.

As for `Cc1ccc(N2CCN(CCOC(=O)Nc3c(C)n(C)n(-c4ccccc4)c3=O)CC2)cc1` [SLB-209, 2-(4-p-Tolyl-piperazino)-ethyl N-(2,3-dimethyl-5-oxo-1-phenyl-3Δ-pyrazolin-4-yl)-carbamate], the ED40 in data set [1] was greater than 100 mg/kg. In addition, the ED50 in data set [2] stood at 25 mg/kg; in the data set on CD1 mice, tail-pinching it was 15 mg/kg. Further, the LD50 in data set [3] was 410 mg/kg.

Turning to `Cc1c(NC(=O)OCCN2CCN(c3cccc(SC(F)(F)F)c3)CC2)c(=O)n(-c2ccccc2)n1C` [SLB-208, 2-(4-m-Trifluoromethylthiophenyl-piperazino)-ethyl N-(2,3-dimethyl-5-oxo-1-phenyl-3Δ-pyrazolin-4-yl)-carbamate], in data set [1], the ED40 was determined as 76 mg/kg. In data set [2], this compound had an ED50 of 17 mg/kg. For the same compound, the LD50 in data set [3] is greater than 1000 mg/kg.

`Cc1c(N(C)C)c(=O)n(-c2ccccc2)n1C` [Aminopyrine, reference compound]: in data set [1], the ED40 was determined as 50 mg/kg. In addition, the ED50 was determined as 40 mg/kg in data set [2] and 75 mg/kg with CD1 mice, tail-pinching.

For `Cc1c(NC(=O)OCCN2CCN(c3cccc(C(F)(F)F)c3)CC2)c(=O)n(-c2ccccc2)n1C` [SLB-186, 2-(4-m-Trifluoromethylphenyl-piperazino)-ethyl N-(2,3-dimethyl-5-oxo-1-phenyl-3Δ-pyrazolin-4-yl)-carbamate hydrochloride], in data set [1], the ED40 was determined as 100 mg/kg. For the same compound, the ED50 in data set [2] is 8 mg/kg; in the data set on CD1 mice, tail-pinching it was 10 mg/kg. Also, in data set [3], the LD50 was 2000 mg/kg.

On to `Cc1c(NC(=O)OCCN(C)C)c(=O)n(-c2ccccc2)n1C` [SLB-215, 2-Dimethylamino-ethyl N-(2,3-dimethyl-5-oxo-1-phenyl-3Δ-pyrazolin-4-yl)-carbamate], for which the ED40 in data set [1] was greater than 100 mg/kg. Also, the ED50 in data set [2] worked out at 60 mg/kg. Further, the solubility in water result in “Solubility in water” is recorded as “very soluble in water”. The LD50 in data set [3] was greater than 1000 mg/kg.

(Values after US4010161A, “Piperazinoethyl-N-(2,3-dimethyl-5-oxo-1-phenyl-3Δ-pyrazolin- 4-yl)carbamates” (Synthelabo, priority 1973, dated 1977).)
